Results on one cell line are retold here after the supplement of paper PMC10307832.

Common to all, as to assay: relative viability (nuclei count vs DMSO), 5 days (fraction); higher = more cells survive
Compound in the assay “Dabrafenib + Luminespib”: CC(C)(C)c1nc(-c2cccc(NS(=O)(=O)c3c(F)cccc3F)c2F)c(-c2ccnc(N)n2)s1 [Dabrafenib] + CCNC(=O)c1noc(-c2cc(C(C)C)c(O)cc2O)c1-c1ccc(CN2CCOCC2)cc1 [Luminespib] (partner 0.01 µM)
Summed up:
(§1)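 Each reported value is a median over duplicate plates. It expresses relative viability: treated-well nuclei count divided by vehicle-well nuclei count. Lung cancer cell lines in 1536-well plates were dosed by pin tool a day after seeding, alone with one drug or with a fixed anchor-drug dose plus five library-drug doses (not always all listed) in √10 steps, and nuclei were counted after 5 days.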

Compound in the assay “Dabrafenib + AZD7762”: CC(C)(C)c1nc(-c2cccc(NS(=O)(=O)c3c(F)cccc3F)c2F)c(-c2ccnc(N)n2)s1 [Dabrafenib] + NC(=O)Nc1cc(-c2cccc(F)c2)sc1C(=O)N[C@H]1CCCNC1 [AZD7762] (partner 0.2 µM)
Summed up:
as §1

Compound in the assay “VX-702 + OSI-027”: NC(=O)c1ccc(N(C(N)=O)c2c(F)cccc2F)nc1-c1ccc(F)cc1F [VX-702] + COc1cccc2cc(-c3nc([C@H]4CC[C@H](C(=O)O)CC4)n4ncnc(N)c34)[nH]c12 [OSI-027] (partner 0.5 µM)
A digest of the protocol: as §1

Compound in the assay “VX-702 + Vorinostat”: NC(=O)c1ccc(N(C(N)=O)c2c(F)cccc2F)nc1-c1ccc(F)cc1F [VX-702] + O=C(CCCCCCC(=O)Nc1ccccc1)NO [Vorinostat] (partner 1 µM)
A digest of the protocol:
as §1

Compound in the assay “VX-702 + Olaparib”: NC(=O)c1ccc(N(C(N)=O)c2c(F)cccc2F)nc1-c1ccc(F)cc1F [VX-702] + O=C(c1cc(Cc2n[nH]c(=O)c3ccccc23)ccc1F)N1CCN(C(=O)C2CC2)CC1 [Olaparib] (partner 8 µM)
A digest of the protocol: as §1

Take SW 900: the relative viability in the assay with Dabrafenib + Luminespib (first compound 0.009487 µM) worked out at 0.186; with Dabrafenib + Luminespib (first compound 0.03 µM), 0.166; with Dabrafenib + Luminespib (first compound 0.3 µM) it was 0.214; in the assay with Dabrafenib + AZD7762 (first compound 0.009487 µM) it was 0.578; with Dabrafenib + AZD7762 (first compound 0.09487 µM) it was 0.845; with Dabrafenib + AZD7762 (first compound 0.3 µM) it was 0.875. Further, the relative viability worked out at 0.565 in the assay with VX-702 + OSI-027 (first compound 0.02 µM); 0.676 with VX-702 + OSI-027 (first compound 0.2 µM); 0.592 with VX-702 + OSI-027 (first compound 0.6325 µM); 0.765 in the assay with VX-702 + OSI-027 (first compound 2 µM); 0.492 in the assay with VX-702 + Vorinostat (first compound 0.02 µM); 0.444 with VX-702 + Vorinostat (first compound 0.2 µM). In addition, the relative viability with VX-702 + Vorinostat (first compound 0.6325 µM) was 0.558; with VX-702 + Vorinostat (first compound 2 µM), 0.516; with VX-702 + Olaparib (first compound 0.02 µM), 0.772; with VX-702 + Olaparib (first compound 0.2 µM) it was 0.878; with VX-702 + Olaparib (first compound 0.6325 µM) it was 0.887; in the assay with VX-702 + Olaparib (first compound 2 µM), 0.893.
